One experiment concerns the target T1, SHIP1 (Homo sapiens, UniProt Q92835).
T1 sequence (Q92835 1-1189): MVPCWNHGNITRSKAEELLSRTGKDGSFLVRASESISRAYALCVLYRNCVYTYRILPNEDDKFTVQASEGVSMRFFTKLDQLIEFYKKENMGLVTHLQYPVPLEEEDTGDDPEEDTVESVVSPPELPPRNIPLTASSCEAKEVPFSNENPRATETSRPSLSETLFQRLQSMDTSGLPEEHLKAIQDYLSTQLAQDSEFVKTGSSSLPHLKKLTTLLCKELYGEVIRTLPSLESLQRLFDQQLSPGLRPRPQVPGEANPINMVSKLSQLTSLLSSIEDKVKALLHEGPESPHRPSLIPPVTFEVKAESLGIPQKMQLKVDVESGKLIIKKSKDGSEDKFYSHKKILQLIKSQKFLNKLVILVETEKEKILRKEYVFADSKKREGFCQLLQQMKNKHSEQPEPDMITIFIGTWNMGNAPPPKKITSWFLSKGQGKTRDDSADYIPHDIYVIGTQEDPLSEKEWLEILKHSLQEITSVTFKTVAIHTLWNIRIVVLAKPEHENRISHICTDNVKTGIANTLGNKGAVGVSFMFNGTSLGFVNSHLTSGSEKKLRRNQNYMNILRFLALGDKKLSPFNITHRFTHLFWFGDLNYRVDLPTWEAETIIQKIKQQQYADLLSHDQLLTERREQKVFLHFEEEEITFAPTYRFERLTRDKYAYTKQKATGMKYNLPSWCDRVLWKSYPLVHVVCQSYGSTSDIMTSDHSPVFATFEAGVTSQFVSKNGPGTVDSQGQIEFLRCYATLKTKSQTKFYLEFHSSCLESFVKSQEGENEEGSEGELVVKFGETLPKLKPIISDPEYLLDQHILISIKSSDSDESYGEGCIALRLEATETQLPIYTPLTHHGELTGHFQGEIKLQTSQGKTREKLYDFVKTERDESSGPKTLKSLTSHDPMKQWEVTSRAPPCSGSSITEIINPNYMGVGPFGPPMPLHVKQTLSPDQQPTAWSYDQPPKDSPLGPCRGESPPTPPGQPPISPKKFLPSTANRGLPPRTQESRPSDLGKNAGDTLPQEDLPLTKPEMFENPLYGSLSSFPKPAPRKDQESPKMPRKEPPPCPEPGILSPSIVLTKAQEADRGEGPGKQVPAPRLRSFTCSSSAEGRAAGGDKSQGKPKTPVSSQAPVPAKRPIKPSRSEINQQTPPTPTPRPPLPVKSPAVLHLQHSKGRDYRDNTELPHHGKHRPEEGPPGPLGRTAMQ
As to conditions: Brooks et al. 2010; cited from earlier work.

Another experiment deals with tumor. The experiment in a line: Adoptive transfer of hematolymphoid cells from 3AC treated long-term survivors, survival after tumor challenge. Type of experiment: in vivo, mice. The settings on record: cells from tumor challenged, 3AC treated long-term surviving donor vs naive donor; recipients not treated. An excerpt: To test for continued presence of such immunity, hematolymphoid cells were adoptively transferred from either a nave donor or from a tumor challenged, 3AC treated, long-term surviving (primed) donor into nave C57BL/6 hosts.

For another experiment, the system named is MC-38. The experiment is described as follows: MC-38 viability following in vitro treatment. It is filed as cell-based, mice. As to conditions: in vitro 24 h; all concentrations N.S. vs solvent only. As to the method: FIG. 7A and FIG. 7B show CT26 (FIG. 7A) and MC-38 (FIG. 7B) viability following in vitro treatment with 3AC for 24 h at indicated doses. Relative viability is expressed as frequency compared to solvent only treated cells. Kill curve summarizes pooled data from three independent experiments using six replicate wells/concentration with mean±SEM indicated. BALB/C mice were challenged with subcutaneous injection of CT26 colon carcinoma cells in the right flank. Mice were treated with either 2 consecutive days of 3AC or vehicle control each week as in FIG. 4A. Tumor size at […] 28 days (FIG. 7C), and tumor weight on day 28 determined after dissection of tumor (FIG. 7E). […] C57BL/6 mice were challenged with subcutaneous injection of MC-38 colon carcinoma cells in the right flank. Mice were treated with either 2 consecutive days of SHIP inhibitor or vehicle control each week as in FIG. 4A. Tumor size at 14, 21 and 25 days (FIG. 7D), and tumor weight (FIG. 7F) on day 25 were determined after dissection of tumor. […] FIG. 7A (n=18 per group. One-way ANOVA with Dunnett's multiple comparisons. 0 μM vs. 20 μM Adjusted p value=0.0463. All other concentrations of SHIP inhibitor compared with solvent only N.S.). FIG. 7B (n=18 per group. One-way ANOVA with Dunnett's multiple comparisons. All concentrations of SHIP inhibitor compared with solvent only N.S.). […]

In experiment [1] the test system is CT26 colon carcinoma cells. The experiment is described as follows: Subcutaneous CT26 colon carcinoma model. It is filed as in vivo, BALB/C mice. As for the experimental part:
FIG. 7A and FIG. 7B show CT26 (FIG. 7A) and MC-38 (FIG. 7B) viability following in vitro treatment with 3AC for 24 h at indicated doses. Relative viability is expressed as frequency compared to solvent only treated cells. Kill curve summarizes pooled data from three independent experiments using six replicate wells/concentration with mean±SEM indicated. BALB/C mice were challenged with subcutaneous injection of CT26 colon carcinoma cells in the right flank. Mice were treated with either 2 consecutive days of 3AC or vehicle control each week as in FIG. 4A. Tumor size at […] 28 days (FIG. 7C), and tumor weight on day 28 determined after dissection of tumor (FIG. 7E). […] C57BL/6 mice were challenged with subcutaneous injection of MC-38 colon carcinoma cells in the right flank. Mice were treated with either 2 consecutive days of SHIP inhibitor or vehicle control each week as in FIG. 4A. Tumor size at 14, 21 and 25 days (FIG. 7D), and tumor weight (FIG. 7F) on day 25 were determined after dissection of tumor. […] FIG. 7A (n=18 per group. One-way ANOVA with Dunnett's multiple comparisons. 0 μM vs. 20 μM Adjusted p value=0.0463. All other concentrations of SHIP inhibitor compared with solvent only N.S.). FIG. 7B (n=18 per group. One-way ANOVA with Dunnett's multiple comparisons. All concentrations of SHIP inhibitor compared with solvent only N.S.). FIGS. 7C-7F graphs represent data from one of two independent experiments. FIG. 7C (n=10. Day 14 p<0.0001, Unpaired t test with Welch's correction. Day 21 p<0.0001, two-tailed student's t-test. Day 28 p<0.0001, two-tailed Student's t-test). FIG. 7E (n=10. P<0.0001, two-tailed Student's t-test) FIG. 7D (n=10. Day 14 p=0.0005, two-tailed student's t-test. Day 21 p=0.0009, two-tailed Student's t-test. Day 25 p=0.0009, two-tailed student's t-test). FIG. 7F (n=10. P=0.0067, two-tailed student's t-test).
Colorectal cancer is the second leading cause of cancer mortality in the United States (Siegel, R. L. et al., Colorectal cancer statistics, 2017. CA Cancer J Clin. (2017)). […]

Take `CC(C)CCC[C@@H](C)[C@H]1CC[C@H]2[C@@H]3CCC4C[C@H](N)CC[C@]4(C)[C@H]3CC[C@]12C` (stereo partly drawn) [Compound 3AC, 3-α-aminocholestane]: the “selectivity for SHIP1” value on SHIP1 is given as “high degree of selectivity”. Also, the “survival of recipients of primed hematolymphoid cells” value in the experiment with tumor is “significantly increased survival”. In the experiment with MC-38, the “MC-38 viability (direct killing)” value is listed as “resistant to direct killing”. The tumor weight result in experiment [1] (day 28, vs vehicle) was “significant reduction”. For the same molecule, in experiment [1] (two consecutive days each week, days 14, 21, 28, vs vehicle), the tumor size entry is recorded as “significant reduction”. In addition, the “histological analysis (H&E) of tumors” value in experiment [1] (vs vehicle) is “prominent zones of tumor cell death”.
